Laboratory results: the supplement of paper PMC11061612

Legend:
Assay in all cases: Bliss excess, mean over the matrix (fraction); higher = more synergy
[1] = tested on: BFTC-905 (Bladder Carcinoma)
Outline: (§1)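 Cell lines grown in DMEM/F12 or RPMI with 10% FBS were plated in 1536-well plates and held 24 hours at 37°C, 5% CO2 before 72 hours of exposure to two-drug dose matrices, with DMSO typically at 0.2%. CellTiter-Glo 2.0 luminescence gave viability, which was converted to inhibition. Vehicle wells were set to 0 and blank wells to 1. Combination Emax is the second-highest inhibition in the matrix, and Bliss excess is the observed combination effect minus the expected EA + EB − EA·EB, where EA and EB are the single-agent effects.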

[2] = tested on: CAMA-1 (Breast Carcinoma)
Outline: as §1

CHP-212 (Neuroblastoma) = tested on: CHP-212 (Neuroblastoma)
Outline: as §1

[3] = tested on: DND-41 (T-Lymphoblastic Leukemia)
Outline: as §1

ES1 (Ewing's Sarcoma) = tested on: ES1 (Ewing's Sarcoma)
Outline: as §1

[4] = tested on: HDQ-P1 (Breast Carcinoma)
Outline: as §1

[5] = tested on: K-562 (Chronic Myelogenous Leukemia)
Outline: as §1

[6] = tested on: KM12 (Colorectal Carcinoma)
Outline: as §1

[7] = tested on: KYSE-180 (Esophageal Squamous Cell Carcinoma)
Outline: as §1

[8] = tested on: L-540 (Hodgkin's Lymphoma)
Outline: as §1

[9] = tested on: MFM-223 (Breast Carcinoma)
Outline: as §1

[10] = tested on: MKN28 (Gastric Carcinoma)
Outline: as §1

[11] = tested on: NCI-H1792 (Lung Adenocarcinoma)
Outline: as §1

[12] = tested on: PANC-08-13 (Pancreatic Carcinoma)
Outline: as §1

[13] = tested on: SU-DHL-8 (B-Cell Non-Hodgkin's Lymphoma)
Outline: as §1

TC-71 (Ewing's Sarcoma) = tested on: TC-71 (Ewing's Sarcoma)
Outline: as §1

[14] = tested on: TE-6 (Esophageal Squamous Cell Carcinoma)
Outline: as §1

U251 (Low Grade Glioma) = tested on: U251 (Low Grade Glioma)
Outline: as §1

WIL2-NS (Non-Cancerous) = tested on: WIL2-NS (Non-Cancerous)
Outline: as §1

Structure (SMILES)	Bliss excess [1]	Bliss excess [2]	Bliss excess (CHP-212 (Neuroblastoma))	Bliss excess [3]	Bliss excess (ES1 (Ewing's Sarcoma))	Bliss excess [4]	Bliss excess [5]	Bliss excess [6]	Bliss excess [7]	Bliss excess [8]	Bliss excess [9]	Bliss excess [10]	Bliss excess [11]	Bliss excess [12]	Bliss excess [13]	Bliss excess (TC-71 (Ewing's Sarcoma))	Bliss excess [14]	Bliss excess (U251 (Low Grade Glioma))	Bliss excess (WIL2-NS (Non-Cancerous))
COc1nnc2ccc(N3CCC(c4ccc(OCCN5CCN(C)C(=O)[C@H]5C)cc4)CC3)nn12 [AZD5153] + C=CCn1c(=O)c2cnc(Nc3ccc(N4CCN(C)CC4)cc3)nc2n1-c1cccc(C(C)(C)O)n1 [AZD1775] (first compound max 1 µM, partner max 1 µM)	-0.0559	-0.0121	-0.0294	-0.0027	-0.0845	-0.041	-0.0718	-0.0456	-0.0323	-0.0433	-0.0679	-0.0617	-0.0428	0.0108	0.0014	0.0354	-0.0166	0.0398	-0.105
COc1nnc2ccc(N3CCC(c4ccc(OCCN5CCN(C)C(=O)[C@H]5C)cc4)CC3)nn12 [AZD5153] + CC1(C)CCC(CN2CCN(c3ccc(C(=O)NS(=O)(=O)c4ccc(NCC5CCOCC5)c([N+](=O)[O-])c4)c(Oc4cnc5[nH]ccc5c4)c3)CC2)=C(c2ccc(Cl)cc2)C1 [Venetoclax] (first compound max 1 µM, 7x7, partner max 1 µM)	-0.0577	-0.0564	-0.085	0.0352	-0.0896	-0.0307	-0.0494	-0.0571	-0.0193	-0.0012	-0.0295	-0.0251	-0.0215	0.0065	-0.0486	-0.0443	-0.103	-0.0872	-0.0495
COc1nnc2ccc(N3CCC(c4ccc(OCCN5CCN(C)C(=O)[C@H]5C)cc4)CC3)nn12 [AZD5153] + CCN(CCO)CCCOc1ccc2c(Nc3cc(CC(=O)Nc4cccc(F)c4)[nH]n3)ncnc2c1 [AZD2811] (first compound max 1 µM, 7x7, partner max 1 µM)	-0.0452	-0.0311	-0.027	0.0529	-0.0504	-0.008	-0.0153	-0.0112	0.0356	-0.0477	-0.0622	-0.0244	-0.083	-0.0175	0.107	-0.0316	-0.0501	0.0064	-0.0421
COc1nnc2ccc(N3CCC(c4ccc(OCCN5CCN(C)C(=O)[C@H]5C)cc4)CC3)nn12 [AZD5153] + C[C@@H]1COCCN1C2=NC(=NC(=C2)C3(CC3)[S@](=N)(=O)C)C4=C5C=CNC5=NC=C4 [AZD6738] (first compound max 1 µM, 7x7, partner max 10 µM)	-0.05	-0.0091	-0.0197	0.0628	-0.015	0.0527	-0.0303	0.0526	0.0656	-0.0623	-0.0011	-0.0072	-0.0628	0.035	0.0042	0.0254	-0.0503	0.0544	-0.0766
COc1nnc2ccc(N3CCC(c4ccc(OCCN5CCN(C)C(=O)[C@H]5C)cc4)CC3)nn12 [AZD5153] + Cc1c2c(nn1C)CSCc1cc(n(C)n1)CSc1cc(c3ccccc3c1)OCCCc1c(C(=O)O)n(C)c3c-2c(Cl)ccc13 [AZD5991] (first compound max 1 µM, 7x7, partner max 1 µM)	-0.0056	0.0283	-0.0281	0.0181	-0.037	-0.0667	-0.0496	-0.0473	-0.0033	0.0062	-0.0258	-0.0235	-0.0008	0.0228	-0.0131	0.0285	-0.0701	-0.0253	-0.0255
COc1nnc2ccc(N3CCC(c4ccc(OCCN5CCN(C)C(=O)[C@H]5C)cc4)CC3)nn12 [AZD5153] + Cn1cnc2c(F)c(Nc3ccc(Br)cc3Cl)c(C(=O)NOCCO)cc21 [Selumetinib] (first compound max 1 µM, 7x7, partner max 10 µM)	0.0113	0.0022	-0.0285	0.0425	-0.0511	-0.0697	-0.001	-0.0166	0.046	-0.0441	-0.0299	-0.0169	0.0577	0.0924	0.0473	0.0049	-0.0216	-0.0062	0.0265
NC1(C(=O)N[C@@H](CCO)c2ccc(Cl)cc2)CCN(c2ncnc3[nH]ccc23)CC1 [Capivasertib] + CC(=O)c1c(C)c2cnc(Nc3ccc(N4CCNCC4)cn3)nc2n(C2CCCC2)c1=O [Palbociclib] (first compound max 10 µM, 7x7, partner max 10 µM)	0.0048	0.052	0.0311	-0.0146	0.0697	-0.0092	0.0122	0.0176	0.0645	-0.0243	0.0091	-0.0459	0.0419	-0.0151	0.0646	0.0341	-0.0195	0.0007	-0.0049
NC1(C(=O)N[C@@H](CCO)c2ccc(Cl)cc2)CCN(c2ncnc3[nH]ccc23)CC1 [Capivasertib] + CC(C)n1c(=O)n(C)c2cnc3cc(F)c(-c4ccc(OCCCN5CCCCC5)nc4)cc3c21 [AZD1390] (first compound max 10 µM, 7x7, partner max 0.3 µM)	-0.0329	-0.0558	-0.0965	-0.0595	-0.111	-0.0442	0.0077	-0.0399	-0.0509	0.0167	-0.0098	-0.0634	-0.0625	-0.0908	-0.0156	-0.0567	-0.134	-0.0549	-0.0379
NC1(C(=O)N[C@@H](CCO)c2ccc(Cl)cc2)CCN(c2ncnc3[nH]ccc23)CC1 [Capivasertib] + CCN(CCO)CCCOc1ccc2c(Nc3cc(CC(=O)Nc4cccc(F)c4)[nH]n3)ncnc2c1 [AZD2811] (first compound max 10 µM, 7x7, partner max 1 µM)	-0.0462	0.0051	-0.008	0.0071	-0.0207	-0.0077	-0.0151	-0.0303	-0.0303	0.0547	-0.0072	0.0119	-0.0079	-0.0015	0.0078	-0.0573	-0.0003	0.0469	-0.0431
NC1(C(=O)N[C@@H](CCO)c2ccc(Cl)cc2)CCN(c2ncnc3[nH]ccc23)CC1 [Capivasertib] + COc1nnc2ccc(N3CCC(c4ccc(OCCN5CCN(C)C(=O)[C@H]5C)cc4)CC3)nn12 [AZD5153] (first compound max 10 µM, 7x7, partner max 1 µM)	-0.0346	0.106	0.0469	0.0339	0.035	0.0651	0.0061	0.0143	0.0387	-0.0794	-0.0302	-0.0075	0.0039	0.0483	0.0407	0.0228	-0.0708	0.0284	-0.0933
NC1(C(=O)N[C@@H](CCO)c2ccc(Cl)cc2)CCN(c2ncnc3[nH]ccc23)CC1 [Capivasertib] + C[C@@H]1COCCN1C2=NC(=NC(=C2)C3(CC3)[S@](=N)(=O)C)C4=C5C=CNC5=NC=C4 [AZD6738] (first compound max 10 µM, 7x7, partner max 10 µM)	-0.0391	-0.0149	-0.0156	-0.0221	-0.0448	-0.0178	-0.0383	0.0297	-0.0866	-0.0059	-0.0626	-0.0459	-0.0208	0.0128	-0.0045	0.0295	-0.0476	-0.0006	-0.0529
NC1(C(=O)N[C@@H](CCO)c2ccc(Cl)cc2)CCN(c2ncnc3[nH]ccc23)CC1 [Capivasertib] + Cn1cnc2c(F)c(Nc3ccc(Br)cc3Cl)c(C(=O)NOCCO)cc21 [Selumetinib] (first compound max 10 µM, 7x7, partner max 10 µM)	-0.0047	0.0187	-0.0277	0.0293	0.0724	-0.0046	0.0713	0.016	-0.0307	-0.0345	0.0276	-0.05	0.0276	0.0495	-0.0214	0.0203	0.0032	0.0099	0.0482
Cc1nc(Nc2ncc(C(=O)Nc3c(C)cccc3Cl)s2)cc(N2CCN(CCO)CC2)n1 [Dasatinib] + CC(=O)Nc1cccc(-n2c(=O)n(C3CC3)c(=O)c3c(Nc4ccc(I)cc4F)n(C)c(=O)c(C)c32)c1 [Trametinib] (first compound max 2 µM, 7x7, partner max 1 µM)	0.0926	-0.0382	0.0235	-0.0333	-0.0643	-0.0033	-0.0956	-0.108	-0.0424	-0.0484	-0.0546	0.0027	0.0422	0.143	-0.0242	-0.0333	-0.0255	0.0682	0.133
CC(=O)c1c(C)c2cnc(Nc3ccc(N4CCNCC4)cn3)nc2n(C2CCCC2)c1=O [Palbociclib] + CN(CC[C@H](CSC1=CC=CC=C1)NC2=C(C=C(C=C2)S(=O)(=O)NC(=O)C3=CC=C(C=C3)N4CCC(CC4)[C@H](C5=CC=CC=C5C6=CC=C(C=C6)Cl)O)S(=O)(=O)C(F)(F)F)CCO [AZD4320] (first compound max 10 µM, 7x7, partner max 1 µM)			-0.0366			-0.0735		-0.0377	-0.0269		-0.0021			-0.0459	-0.106	-0.0326	-0.0596	-0.0989	
C[C@@H](c1ccc2nccn2c1)n1nnc2ncc(-c3cnn(C)c3)nc21 [Savolitinib] + CN(CC[C@H](CSC1=CC=CC=C1)NC2=C(C=C(C=C2)S(=O)(=O)NC(=O)C3=CC=C(C=C3)N4CCC(CC4)[C@H](C5=CC=CC=C5C6=CC=C(C=C6)Cl)O)S(=O)(=O)C(F)(F)F)CCO [AZD4320] (first compound max 1 µM, 7x7, partner max 1 µM)			-0.0613			-0.0432		-0.0156	-0.0161		-0.0726			-0.0588	0.0282	-0.0266	-0.0312	-0.0546	
